Like-named read-outs stand apart in the source and are kept apart here.
Target: mu-opioid receptor (MOR) (Homo sapiens (Human), UniProt P35372)
Test: cell-based
Conditions: for AUC: AUC of [Ca2+]i fluorescence, CHO-K1/MOR/Gα15 cells
[1] = EC50, CHO-K1/MOR/Gα15 cells, combined with a MOR antagonist
[2] = combined with a MOR antagonist, read-out: FLIPR Ca^2+ EC50

mu-opioid receptor (MOR), sequence (P35372 whole entry): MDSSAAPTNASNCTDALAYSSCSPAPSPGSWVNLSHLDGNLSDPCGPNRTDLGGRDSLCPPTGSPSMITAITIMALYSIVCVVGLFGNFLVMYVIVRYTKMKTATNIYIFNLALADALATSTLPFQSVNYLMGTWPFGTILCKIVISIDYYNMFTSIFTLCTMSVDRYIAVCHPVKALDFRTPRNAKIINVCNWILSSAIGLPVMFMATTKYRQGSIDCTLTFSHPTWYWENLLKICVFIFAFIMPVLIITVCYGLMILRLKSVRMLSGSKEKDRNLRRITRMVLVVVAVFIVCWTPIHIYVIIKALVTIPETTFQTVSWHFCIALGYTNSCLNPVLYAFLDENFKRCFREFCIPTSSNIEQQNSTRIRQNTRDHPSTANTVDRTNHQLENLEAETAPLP

In the case of `Cc1cc(C(=O)Nc2ccccc2)ccc1N1C(=O)CSC1c1ccc(F)cc1` (centres unmarked) [Example 361], the AUC (combined with a MOR antagonist) is reported as “more than 5000”, the EC50 [1] is reported as less than 10 µM and the “FLIPR Ca^2+ AUC” value (combined with a MOR antagonist) is reported as 6128. The EC50 [2] was 8.8 µM.

`Cc1cc(C(=O)NCc2cc(F)ccc2F)ccc1N1C(=O)CSC1c1ccc(F)cc1` (centres unmarked) [Example 376] was tested, and the “FLIPR Ca^2+ AUC” value (combined with a MOR antagonist) was 8823 and the EC50 [2] was 1 µM.

In the case of `Cc1cc(C(=O)NS(=O)(=O)c2ccc(Cl)cc2F)ccc1N1C(=O)CSC1c1ccc(F)cc1` (centres unmarked), the AUC (combined with a MOR antagonist) is reported as “more than 5000”, the EC50 [1] is reported as less than 10 µM and the “FLIPR Ca^2+ AUC” value (combined with a MOR antagonist) is reported as 15287. The EC50 [2] was 0.1 µM.

With `Cc1cc(C(=O)OCCC#N)ccc1N1C(=O)CSC1c1ccc(F)cc1` (centres unmarked) [Example 269] the “FLIPR Ca^2+ AUC” value (combined with a MOR antagonist) was 14183 and the EC50 [2] was 12.3 µM.

With `Cc1cc(C(=O)OCc2cccnc2)ccc1N1C(=O)CSC1c1ccc(F)cc1` (centres unmarked) [Example 261] the AUC (combined with a MOR antagonist) was “more than 5000”, the EC50 [1] was less than 10 µM and the “FLIPR Ca^2+ AUC” value (combined with a MOR antagonist) was 11434. For the same compound, the EC50 [2] was 2.9 µM.

`COC(=O)c1ccc(N2C(=O)CSC2c2ccc(F)cc2)c(C)c1` (centres unmarked) [Example 59] was tested, and the “FLIPR Ca^2+ AUC” value (combined with a MOR antagonist) was 11534 and the EC50 [2] was 2.6 µM.

For `Cc1cc(C(=O)NS(N)(=O)=O)ccc1N1C(=O)CSC1c1ccc(F)cc1` (centres unmarked) [Example 173], the “FLIPR Ca^2+ AUC” value (combined with a MOR antagonist) was 14841 and the EC50 [2] was 5.3 µM.

With `Cc1cc(C(=O)NC2CCCCC2)ccc1N1C(=O)CSC1c1ccc(F)cc1` (centres unmarked) [Example 339] the “FLIPR Ca^2+ AUC” value (combined with a MOR antagonist) was 7164 and the EC50 [2] was 10 µM.

For `Cc1cc(C(=O)OCCOCCN)ccc1N1C(=O)CSC1c1ccc(F)cc1` (centres unmarked) [Example 303], the AUC (combined with a MOR antagonist) was “more than 5000”, the EC50 [1] was less than 10 µM and the “FLIPR Ca^2+ AUC” value (combined with a MOR antagonist) was 9530. For the same compound, the EC50 [2] was 7 µM.

With `Cc1cc(C(=O)OC2CCN(C)C2)ccc1N1C(=O)CSC1c1ccc(F)cc1` (centres unmarked) [Example 300] the “FLIPR Ca^2+ AUC” value (combined with a MOR antagonist) was 12918 and the EC50 [2] was 1.6 µM.

`Cc1cc(C(=O)NS(=O)(=O)c2ccc(F)cc2F)ccc1N1C(=O)CSC1c1ccc(F)cc1` (centres unmarked) [Example 206] showed an EC50 [1] of less than 10 µM.

`Cc1cc(C(=O)NO)ccc1N1C(=O)CSC1c1ccc(F)cc1` (centres unmarked) [Example 219] was tested, and the “FLIPR Ca^2+ AUC” value (combined with a MOR antagonist) was 14222 and the EC50 [2] was 6.4 µM.

In the case of `CCCS(=O)(=O)NC(=O)c1ccc(N2C(=O)CSC2c2ccc(F)cc2)c(C)c1` (centres unmarked) [Example 160], the AUC (combined with a MOR antagonist) is reported as “more than 5000”, the EC50 [1] is reported as less than 10 µM and the “FLIPR Ca^2+ AUC” value (combined with a MOR antagonist) is reported as 13549. The EC50 [2] was 4.3 µM.

`CCCCOC(=O)c1ccc(N2C(=O)CSC2c2ccc(F)cc2)c(C)c1` (centres unmarked) [Example 234] was tested, and the “FLIPR Ca^2+ AUC” value (combined with a MOR antagonist) was 10062 and the EC50 [2] was 9 µM.

For `Cc1cc(C(=O)O)ccc1N1C(=O)CSC1c1cccc(F)c1` (centres unmarked) [Example 60], the “FLIPR Ca^2+ AUC” value (combined with a MOR antagonist) was 20700 and the EC50 [2] was 1.1 µM.

With `Cc1cc(C(=O)NS(=O)(=O)c2c(C)noc2C)ccc1N1C(=O)CSC1c1ccc(F)cc1` (centres unmarked) [Example 213] the AUC (combined with a MOR antagonist) was “more than 5000”, the EC50 [1] was less than 10 µM and the “FLIPR Ca^2+ AUC” value (combined with a MOR antagonist) was 9005. For the same compound, the EC50 [2] was 0.9 µM.

With `[2H]c1c([2H])c(C2SCC(=O)N2c2ccc(C(=O)OCC)cc2C)c([2H])c([2H])c1F` (centres unmarked) [Example 580, Ethyl 4-{2-[4-fluoro-2,3,5,6-d4-phenyl]-4-oxo-1,3-thiazolidin-3-yl}-3-methylbenzoate] the EC50 (FLIPR Ca^2+ EC50, combined with a MOR antagonist) was 4.26 µM and the “FLIPR Ca^2+ AUC” value (combined with a MOR antagonist) was 14441.

Compound `COc1ccc(N2C(=O)CSC2c2ccc(F)cc2)c(OC)c1` (centres unmarked) [Example 8, 3-(2,4-Dimethoxyphenyl)-2-(4-fluorophenyl)thiazolidin-4-one] has an EC50 [1] of less than 10 µM.

In the case of `Cc1cc(C(=O)NC2CCC2)ccc1N1C(=O)CSC1c1ccc(F)cc1` (centres unmarked) [Example 337], the EC50 [1] is reported as less than 10 µM, the “FLIPR Ca^2+ AUC” value (combined with a MOR antagonist) is reported as 8936 and the EC50 [2] is reported as 0.3 µM.

For `Cc1cc(C(=O)OCCN2CCCCC2)ccc1N1C(=O)CSC1c1ccc(F)cc1` (centres unmarked) [Example 295], the “FLIPR Ca^2+ AUC” value (combined with a MOR antagonist) was 10426 and the EC50 [2] was 2.8 µM.

With `COC(=O)COc1ccc(N2C(=O)CSC2c2ccc(F)cc2)c(C)c1` (centres unmarked) [Example 93] the AUC (combined with a MOR antagonist) was “more than 5000”, the EC50 [1] was less than 10 µM and the “FLIPR Ca^2+ AUC” value (combined with a MOR antagonist) was 11009. The EC50 [2] was 6.4 µM.

With `Cc1cc(C(=O)NC2CC2)ccc1N1C(=O)CSC1c1ccc(F)cc1` (centres unmarked) [Example 336] the “FLIPR Ca^2+ AUC” value (combined with a MOR antagonist) was 11347 and the EC50 [2] was 11 µM.

In the case of `Cc1cccnc1N1C(=O)CSC1c1ccc(F)cc1` (centres unmarked) [Example 629, 2-(4-Fluorophenyl)-3-(3-methylpyridin-2-yl)-1,3-thiazolidin-4-one], the “FLIPR Ca^2+ AUC” value (combined with a MOR antagonist) is reported as 4804 and the EC50 [2] is reported as 10 µM.

With `CCOC(=O)N1CCC(NC(=O)c2ccc(N3C(=O)CSC3c3ccc(F)cc3)c(C)c2)CC1` (centres unmarked) [Example 350] the “FLIPR Ca^2+ AUC” value (combined with a MOR antagonist) was 12979 and the EC50 [2] was 4.4 µM.

For `C=Cc1cc(C(=O)O)ccc1N1C(=O)CSC1c1ccc(F)cc1` (centres unmarked) [Example 157], the AUC (combined with a MOR antagonist) was “more than 5000”, the EC50 [1] was less than 10 µM and the “FLIPR Ca^2+ AUC” value (combined with a MOR antagonist) was 5903. The EC50 [2] was 10 µM.

`Cc1cc(C(=O)NCCCn2ccnc2)ccc1N1C(=O)CSC1c1ccc(F)cc1` (centres unmarked) [Example 348] was tested, and the “FLIPR Ca^2+ AUC” value (combined with a MOR antagonist) was 13641 and the EC50 [2] was 8.8 µM.

With `Cc1cc(C(=O)N2CC(O)C2)ccc1N1C(=O)CSC1c1ccc(F)cc1` (centres unmarked) [Example 354] the “FLIPR Ca^2+ AUC” value (combined with a MOR antagonist) was 14863 and the EC50 [2] was 3.6 µM.

`Cc1cc(C(=O)NCCc2cccc(Cl)c2)ccc1N1C(=O)CSC1c1ccc(F)cc1` (centres unmarked) [Example 386] was tested, and the “FLIPR Ca^2+ AUC” value (combined with a MOR antagonist) was 5727 and the EC50 [2] was 4.2 µM.
